Experimental data as given in ChEMBL document CHEMBL5241058, “Pyrazole-based analogs as potential antibacterial agents against methicillin-resistance staphylococcus aureus (MRSA) and its SAR elucidation” (Eur J Med Chem, 2021).
In brackets after ≈: the same amount, converted by molar mass. Several values for one entry are separate records, joined by “and”; a condition that tells them apart may be missing. Equal entries are not always repeated.

Key:
[1] = tested on: Staphylococcus aureus; assay: Antimicrobial activity against Staphylococcus aureus MTCC 96 assessed as bacterial growth inhibition incubated for 24 to 48 hrs; format: functional; details: time 24-48 hrs
[2] = tested on: Staphylococcus aureus; assay: Antimicrobial activity against Staphylococcus aureus MTCC 442 assessed as bacterial growth inhibition incubated for 24 to 48 hrs; format: functional; details: time 24-48 hrs
[3] = tested on: Staphylococcus aureus; assay: Antimicrobial activity against Methicillin-resistant Staphylococcus aureus ATCC 43300 assessed as bacterial growth inhibition by microdilution method; format: functional
[4] = tested on: Staphylococcus aureus; assay: Antimicrobial activity against Methicillin-resistant Staphylococcus aureus CCARM 3506 assessed as bacterial growth inhibition incubated for 24 hrs by ELISA assay; format: functional
[5] = target: T1, Dihydrofolate reductase (Homo sapiens) (UniProt P00374); assay: Inhibition of human DHFR using TMB as substrate incubated for 1.5 hrs by ELISA assay relative to control; details: concentration not given here
T1 sequence (whole entry): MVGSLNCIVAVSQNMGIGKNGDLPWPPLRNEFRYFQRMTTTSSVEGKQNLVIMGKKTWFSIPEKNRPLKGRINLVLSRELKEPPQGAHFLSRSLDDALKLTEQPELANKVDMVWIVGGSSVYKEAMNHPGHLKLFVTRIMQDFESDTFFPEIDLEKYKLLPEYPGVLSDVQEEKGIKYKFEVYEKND

[6] = tested on: Staphylococcus aureus; assay: Antimicrobial activity against Methicillin-resistant Staphylococcus aureus ATCC 43300 assessed as bacterial growth inhibition; format: functional
[7] = tested on: Staphylococcus aureus; assay: Antimicrobial activity against Methicillin sensitive Staphylococcus aureus assessed as bacterial growth inhibition incubated for 18 hrs; format: functional
[8] = tested on: Staphylococcus aureus; assay: Antibiofilm activity against Methicillin-resistant Staphylococcus aureus USA 300 relative to control; format: functional
[9] = tested on: Staphylococcus aureus; assay: Antimicrobial activity against Methicillin-resistant Staphylococcus aureus BFSA25 assessed as bacterial growth inhibition by microdilution method; format: functional; details: BFA25
[10] = tested on: Staphylococcus aureus; assay: Antimicrobial activity against Methicillin-resistant Staphylococcus aureus BFSA30 assessed as bacterial growth inhibition by microdilution method; format: functional; details: BFA30
[11] = tested on: Staphylococcus aureus; assay: Antimicrobial activity against Methicillin-resistant Staphylococcus aureus BFSA31 assessed as bacterial growth inhibition by microdilution method; format: functional; details: BFA31
[12] = tested on: Staphylococcus aureus; assay: Antimicrobial activity against Methicillin-resistant Staphylococcus aureus BFSA32 assessed as bacterial growth inhibition by microdilution method; format: functional; details: BFA32
[13] = tested on: Staphylococcus aureus; assay: Antimicrobial activity against Methicillin-resistant Staphylococcus aureus BFSA33 assessed as bacterial growth inhibition by microdilution method; format: functional; details: BFA33
[14] = tested on: Staphylococcus aureus; assay: Antimicrobial activity against Methicillin-resistant Staphylococcus aureus BFSA48 assessed as bacterial growth inhibition by microdilution method; format: functional; details: BFA48
[15] = tested on: Staphylococcus aureus; assay: Antimicrobial activity against Methicillin-resistant Staphylococcus aureus ATCC 3167 assessed as bacterial growth inhibition; format: functional
[16] = tested on: Escherichia coli; assay: Antimicrobial activity against Escherichia coli ATCC 8739 assessed as bacterial growth inhibition incubated for 18 hrs by microdilution method; format: functional
[17] = tested on: Salmonella enterica subsp. enterica; assay: Antimicrobial activity against Salmonella typhimurium […] assessed as bacterial growth inhibition incubated for 18 hrs by microdilution method; format: functional
[18] = tested on: Klebsiella pneumoniae; assay: Antimicrobial activity against Klebsiella pneumoniae ATCC 314588 assessed as bacterial growth inhibition incubated for 18 hrs by microdilution method; format: functional
[19] = tested on: Pseudomonas aeruginosa; assay: Antimicrobial activity against Pseudomonas aeruginosa ATCC 27853 assessed as bacterial growth inhibition incubated for 18 hrs by microdilution method; format: functional
[20] = tested on: Staphylococcus aureus; assay: Antimicrobial activity against Methicillin-resistant Staphylococcus aureus assessed as bacterial growth inhibition incubated for 24 hrs; format: functional
[21] = tested on: Staphylococcus aureus; assay: Antimicrobial activity against Methicillin-resistant Staphylococcus aureus ATCC 33599 assessed as bacterial growth inhibition; format: functional
[22] = tested on: Staphylococcus aureus; assay: Antimicrobial activity against Methicillin-resistant Staphylococcus aureus ATCC BAA 1683 assessed as bacterial growth inhibition incubated for 18 hrs by microdilution method; format: functional
[23] = tested on: Staphylococcus aureus; assay: Antimicrobial activity against Methicillin-sensitive Staphylococcus aureus ATCC 33591 assessed as bacterial growth inhibition by microbroth serial dilution method; format: functional
[24] = tested on: Staphylococcus aureus; assay: Antimicrobial activity against Methicillin-sensitive Staphylococcus aureus ATCC 43300 assessed as bacterial growth inhibition by microbroth serial dilution method; format: functional
[25] = tested on: Staphylococcus aureus; assay: Antimicrobial activity against Methicillin-sensitive Staphylococcus aureus ATCC 33591 assessed as bacterial growth inhibition incubated for 24 hrs; format: functional
[26] = tested on: Staphylococcus aureus; assay: Antimicrobial activity against Methicillin-sensitive Staphylococcus aureus ATCC 43300 assessed as bacterial growth inhibition incubated for 24 hrs; format: functional; details: ATCC43300
[27] = tested on: Staphylococcus aureus; assay: Antimicrobial activity against vancomycin intermediate-resistant Staphylococcus aureus assessed as bacterial growth inhibition incubated for 24 hrs by microdilution method; format: functional
[28] = tested on: Staphylococcus aureus; assay: Antimicrobial activity against Methicillin-resistant Staphylococcus aureus ATCC 43300 assessed as bacterial growth inhibition incubated for 24 hrs by microdilution method; format: functional; details: ATCC43300
[29] = tested on: Staphylococcus aureus; assay: Antimicrobial activity against Methicillin-resistant Staphylococcus aureus assessed as bacterial growth inhibition; format: functional

O=C(N[C@H](CO)[C@H](O)c1ccc([N+](=O)[O-])cc1)C(Cl)Cl [CHLORAMPHENICOL]
MIC [1]: 50 µg/mL (≈ 155 µM)
MIC [2]: 50 µg/mL (≈ 155 µM)
MIC [3]: 50 µg/mL

Cc1nn(-c2ccc(Cl)cc2Cl)c(Oc2ccc(Cl)cc2Cl)c1C1N=C(N)NC(NCCc2ccccc2)=N1 (stereo unspecified)
MIC [4]: 0.5 µg/mL (≈ 0.829 µM)
inhibition [5]: 43%

CC(C)(C)c1cc(NC(=O)c2cccc(F)c2)n(-c2ccc(Cl)cc2)n1
MIC [6]: 3.12 µg/mL (≈ 8.39 µM)

COc1c(N2C[C@@H]3CCCN[C@@H]3C2)c(F)cc2c(=O)c(C(=O)O)cn(C3CC3)c12 [MOXIFLOXACIN]
MIC [4]: 1 µg/mL (≈ 2.49 µM)
MIC [7]: 0.06 µg/mL (≈ 0.149 µM)

C/C(=N/NC(=N)N)c1cnn(-c2ccc(C#Cc3ccccc3)cc2)c1C
Activity [8]: 20%

COc1ccc(-n2nc(C(C)(C)C)cc2NC(=O)c2cccc(Cl)c2)cc1
MIC [6]: 3.12 µg/mL (≈ 8.13 µM)

Cc1onc(-c2ccccc2)c1C(=O)N[C@@H]1C(=O)N2[C@@H]1SC(C)(C)[C@@H]2C(=O)O [OXACILLIN]
MIC [9]: > 32 µg/mL
MIC [10]: > 32 µg/mL
MIC [11]: > 32 µg/mL
MIC [12]: > 32 µg/mL
MIC [13]: > 32 µg/mL
MIC [14]: > 32 µg/mL
MIC [15]: 64 µM (≈ 25.7 µg/mL)

Clc1ccc(-c2nn(-c3ccccc3)cc2-c2nc3ccccn3c2Cc2ccccc2)cc1
MIC [16]: < 1 µg/mL
MIC [17]: < 1 µg/mL
MIC [18]: < 1 µg/mL
MIC [19]: < 1 µg/mL

Cc1nn(-c2ccccc2)c(Cl)c1/C=C/c1ccc([N+](=O)[O-])cc1[N+](=O)[O-]
MIC [20]: 25 µg/mL (≈ 65 µM)

O=C(O)c1ccc(-n2cc(/C=N/c3ccc(C(F)(F)F)cc3)c(-c3ccc4ccccc4c3)n2)cc1
MBC [21]: 25 µg/mL (≈ 51.5 µM)
MIC [21]: 0.78 µg/mL (≈ 1.61 µM)

Fc1ccc(-c2nn(-c3ccccc3)cc2-c2nc3ccccn3c2Cc2ccccc2)cc1
MIC [16]: < 1 µg/mL
MIC [17]: < 1 µg/mL
MIC [18]: < 1 µg/mL
MIC [19]: < 1 µg/mL
MIC [22]: 2.5 µg/mL (≈ 5.62 µM)

CC(=O)c1nn(-c2ccc([N+](=O)[O-])cc2)cc1C(=O)c1cc2cc(CN3CCN(Cc4ccc5oc(C(=O)c6cn(-c7ccc([N+](=O)[O-])cc7)nc6C(C)=O)cc5c4)CC3)ccc2o1
MIC [23]: 18.1 µM and 9 µM
MBC [24]: 36.2 µM
MIC [24]: 9 µM
MBC [25]: 36.2 µM (≈ 31.2 µg/mL)
MBC [26]: 18.1 µM (≈ 15.6 µg/mL)

C[C@H]1COc2c(N3CCN(C)CC3)c(F)cc3c(=O)c(C(=O)O)cn1c23.C[C@H]1COc2c(N3CCN(C)CC3)c(F)cc3c(=O)c(C(=O)O)cn1c23.O [LEVOFLOXACIN]
MIC [7]: 0.125 µg/mL

O=C1S/C(=C\c2cn(-c3ccccc3)nc2-c2ccc([N+](=O)[O-])cc2)C(=O)N1CCCn1ccc2ccccc21
MIC [3]: 12.5 µg/mL

O=C(c1cc(C(F)(F)F)n[nH]1)c1cc(Cl)ccc1O
MIC [27]: < 0.125 µg/mL

Oc1ccccc1-c1nn(-c2ccccc2)cc1-c1nc2ccccn2c1Cc1ccccc1
MIC [16]: < 1 µg/mL
MIC [17]: < 1 µg/mL
MIC [18]: < 1 µg/mL
MIC [19]: < 1 µg/mL

COc1cc(/C=C/c2cc(/C=C/c3ccc(OCC(=O)N[C@H](C)c4ccccc4)c(OC)c3)[nH]n2)ccc1OCC(=O)N[C@H](C)c1ccccc1
MIC [15]: 10 µM (≈ 6.87 µg/mL)

COc1cccc(-c2nn(-c3ccccc3)cc2-c2nc3ccccn3c2Cc2ccccc2)c1OC
MIC [16]: < 1 µg/mL
MIC [17]: < 1 µg/mL
MIC [18]: < 1 µg/mL
MIC [19]: < 1 µg/mL

O=C(/C=C/c1cccc([N+](=O)[O-])c1)N1N=C(c2ccncc2)OC1c1cn(-c2ccccc2)nc1-c1ccc(F)cc1 (stereo unspecified)
MIC [1]: > 50 µg/mL
MIC [2]: > 50 µg/mL

Cc1nn(-c2ccccc2Cl)c2c1C(C(=O)O)CC=C(C(=O)O)N2 (stereo unspecified)
MIC [28]: > 500 µg/mL

COc1c(N2CCNC(C)C2)c(F)cc2c(=O)c(C(=O)O)cn(C3CC3)c12 (stereo unspecified) [GATIFLOXACIN]
MIC [7]: 0.06 µg/mL (≈ 0.16 µM)

Cc1nn(-c2ccccc2)c(Cl)c1/C=C(\Br)C(=O)C1C(=O)N(C)C(=O)N(C)C1=O
MIC [20]: 25 µg/mL (≈ 52.1 µM)

O=C1S/C(=C\c2cn(-c3ccccc3)nc2-c2cccc([N+](=O)[O-])c2)C(=O)N1CCCn1ccc2ccccc21
MIC [3]: 50 µg/mL

O=C(O)c1cn(C2CC2)c2cc(N3CCNCC3)c(F)cc2c1=O [CIPROFLOXACIN]
MBC [29]: 625 µg/mL (≈ 1890 µM)
MIC [16]: > 1.8 µg/mL
MIC [17]: > 1.8 µg/mL
MIC [18]: > 1.8 µg/mL
MIC [19]: > 1.8 µg/mL
MIC [22]: 1.84 µg/mL (≈ 5.55 µM)

O=C(/C=C/c1cccc(F)c1)N1N=C(c2ccncc2)OC1c1cn(-c2ccccc2)nc1-c1ccc(F)cc1 (stereo unspecified)
MIC [1]: 25 µg/mL (≈ 46.9 µM)
MIC [2]: 25 µg/mL (≈ 46.9 µM)

COc1cc(/C=C/c2cc(/C=C/c3ccc(OCC(=O)NC45CC6CC(CC4C6)C5)c(OC)c3)[nH]n2)ccc1OCC(=O)NC12CC3CC(CC1C3)C2
MIC [15]: 10 µM (≈ 7.19 µg/mL)
